Reference: patent publication US8722849B2, “Polypeptides” (Novo Nordisk A/S, priority 2011, dated 2014)
Where two headings read alike, the source gives them in different places. Starred links: 1 amine or outer side, 2 acyl side, 3 side chain; linkers in the order of their positions; H or OH if unused. Positions of bridges follow the written chain, without caps; N, C: chain ends. Residues, ends and D or L forms follow the SMILES beside them. *: point of attachment. C20 diacid = O=C(O)CCCCCCCCCCCCCCCCCCC(=O)*; γGlu = O=C(O)[C@H](CCC(=O)[*:2])N[*:1]; AEEA = NCCOCCOCC(=O)O

Assay: Assay (IV) determination of solubility
Type: physicochemical
How it was run: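 Eight 100 mM buffers (glycylglycine pH 3.0–5.0, bistrispropane pH 6.0–8.0) each received an equal volume of polypeptide dissolved in water at ~500 nmol/ml. Soluble polypeptide was measured by HPLC following 18 hours at room temperature and centrifugation.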

[1] = pH 3, pH 3.0, read-out: Solubility pH 3.0
[2] = pH 4, pH 4.0, 18 hours at room temperature, Table 2, read-out: Solubility pH 4.0
[3] = pH 4, pH 4.0, read-out: Solubility pH 4.0
[4] = pH 5, pH 5.0, read-out: Solubility pH 5.0
[5] = pH 6, pH 6.0, read-out: Solubility pH 6.0
[6] = pH 6.5, pH 6.5, read-out: Solubility pH 6.5
[7] = pH 7, pH 7.0, 18 hours at room temperature, Table 3, read-out: Solubility pH 7.0
[8] = pH 7, pH 7.0, read-out: Solubility pH 7.0
[9] = pH 7.5, pH 7.5, read-out: Solubility pH 7.5
[10] = pH 8, pH 8.0, read-out: Solubility pH 8.0

Measured: solubility

CC[C@H](C)[C@H](NC(=O)[C@@H]1CCCN1C(=O)CNC(=O)[C@H](Cc1ccccc1)NC(=O)[C@H](CC(N)=O)NC(=O)[C@H](C)NC(=O)[C@H](CO)NC(=O)[C@H](CO)NC(=O)[C@H](Cc1c[nH]cn1)NC(=O)[C@H](Cc1c[nH]cn1)NC(=O)[C@H](CC(C)C)NC(=O)[C@H](Cc1ccccc1)NC(=O)[C@H](CCC(=O)O)NC(=O)[C@H](C)NC(=O)[C@H](CC(C)C)NC(=O)[C@H](CCCNC(=N)N)NC(=O)[C@H](CCC(N)=O)NC(=O)[C@@H](NC(=O)[C@H](C)NC(=O)[C@@H]1CSSC[C@H](NC(=O)[C@H](CCCCN)NC(=O)COCCOCCNC(=O)COCCOCCNC(=O)CC[C@H](NC(=O)CCCCCCCCCCCCCCCCCCC(=O)O)C(=O)O)C(=O)N[C@@H](CC(N)=O)C(=O)N[C@@H]([C@@H](C)O)C(=O)N[C@@H](C)C(=O)N[C@@H]([C@@H](C)O)C(=O)N1)[C@@H](C)O)C(=O)N[C@@H](CC(C)C)C(=O)N1CCC[C@H]1C(=O)N1CCC[C@H]1C(=O)N[C@H](C(=O)N[C@@H](CC(N)=O)C(=O)N[C@H](C(=O)NCC(=O)N[C@@H](CO)C(=O)N[C@@H](CC(N)=O)C(=O)N[C@H](C(=O)N1CCC[C@H]1C(N)=O)[C@@H](C)O)C(C)C)[C@@H](C)O [Example 169, N-alpha-[2-(2-{2-[2-(2-{2-[(S)-4-Carboxy-4-(19-carboxyheptadecanoylamino)butyrylamino]ethoxy}ethoxy)acetylamino]ethoxy}ethoxy)acetyl]-[Glu14,His17,Ala21,Pro37]-pramlintide] ({C20 diacid-γGlu-AEEA-AEEA}-KCNTATCATQRLAEFLHHSSANFGPILPPTNVGSNTP-NH2; disulfide 2-7)
> 200 µM: [1] | [2] | [3] | [4] | [5] | [6] | [7] | [8] | [9] | [10]

CC(C)C[C@H](NC(=O)[C@H](CCCNC(=N)N)NC(=O)[C@H](CCC(N)=O)NC(=O)[C@@H](NC(=O)[C@H](C)NC(=O)[C@@H]1CSSC[C@H](NC(=O)[C@H](CCCCN)NC(=O)CC[C@H](NC(=O)CCCCCCCCCCCCCCCCCCC(=O)O)C(=O)O)C(=O)N[C@@H](CC(N)=O)C(=O)N[C@@H]([C@@H](C)O)C(=O)N[C@@H](C)C(=O)N[C@@H]([C@@H](C)O)C(=O)N1)[C@@H](C)O)C(=O)N[C@@H](C)C(=O)N[C@@H](CCC(=O)O)C(=O)N[C@@H](Cc1ccccc1)C(=O)N[C@@H](CC(C)C)C(=O)N[C@H](C(=O)N[C@@H](Cc1c[nH]cn1)C(=O)N[C@@H](CO)C(=O)N[C@@H](CO)C(=O)N[C@@H](CO)C(=O)N[C@@H](CO)C(=O)N1CCC[C@H]1C(=O)NCC(=O)N[C@@H](C)C(=O)N1CCC[C@H]1C(=O)N[C@@H](CC(C)C)C(=O)N[C@@H](CO)C(=O)N[C@@H](CO)C(=O)N[C@H](C(=O)N[C@@H](CC(=O)O)C(=O)N[C@H](C(=O)NCC(=O)N[C@@H](CO)C(=O)N[C@@H](CC(=O)O)C(=O)N[C@H](C(=O)N1CCC[C@H]1C(N)=O)[C@@H](C)O)C(C)C)[C@@H](C)O)C(C)C [Example 171, N-alpha-[(S)-4-Carboxy-4-(19-carboxynonadecanoylamino)butyryl]-[Glu14,Ser21,Ser22,Pro23,Ala25,Pro26,Ser28,Ser29,Asp31,Asp35,Pro37]-pramlintide] ({C20 diacid-γGlu}-KCNTATCATQRLAEFLVHSSSSPGAPLSSTDVGSDTP-NH2; disulfide 2-7)
> 200 µM: [1] | [2] | [3] | [4] | [5] | [6] | [7] | [8] | [9] | [10]

CC[C@H](C)[C@H](NC(=O)[C@@H]1CCCN1C(=O)CNC(=O)[C@H](Cc1ccccc1)NC(=O)[C@H](CC(N)=O)NC(=O)[C@H](CC(N)=O)NC(=O)[C@H](CO)NC(=O)[C@H](CO)NC(=O)[C@H](Cc1c[nH]cn1)NC(=O)[C@H](CCCNC(=N)N)NC(=O)[C@H](CC(C)C)NC(=O)[C@H](Cc1ccccc1)NC(=O)[C@H](CCC(=O)O)NC(=O)[C@H](C)NC(=O)[C@H](CC(C)C)NC(=O)[C@H](CCCNC(=N)N)NC(=O)[C@H](CCC(N)=O)NC(=O)[C@@H](NC(=O)[C@H](C)NC(=O)[C@@H]1CSSC[C@H](NC(=O)[C@@H](N)CCCCNC(=O)CC[C@H](NC(=O)CCCCCCCCCCCCCCCCCCC(=O)O)C(=O)O)C(=O)N[C@@H](CC(N)=O)C(=O)N[C@@H]([C@@H](C)O)C(=O)N[C@@H](C)C(=O)N[C@@H]([C@@H](C)O)C(=O)N1)[C@@H](C)O)C(=O)N[C@@H](CC(C)C)C(=O)N1CCC[C@H]1C(=O)N1CCC[C@H]1C(=O)N[C@H](C(=O)N[C@@H](CC(N)=O)C(=O)N[C@H](C(=O)NCC(=O)N[C@@H](CO)C(=O)N[C@@H](CC(N)=O)C(=O)N[C@H](C(=O)N1CCC[C@H]1C(N)=O)[C@@H](C)O)C(C)C)[C@@H](C)O [Example 177, N-epsilon1-[(S)-4-Carboxy-4-(19-carboxynonadecanoylamino)butyryl]-[Glu14,Arg17,Pro37]-pramlintide]
> 200 µM: [1] | [2] | [3] | [4] | [5] | [6] | [7] | [8] | [9] | [10]

CC[C@H](C)[C@H](NC(=O)[C@@H]1CCCN1C(=O)CNC(=O)[C@H](Cc1ccccc1)NC(=O)[C@H](CC(N)=O)NC(=O)[C@H](C)NC(=O)[C@H](CO)NC(=O)[C@H](CO)NC(=O)[C@H](Cc1c[nH]cn1)NC(=O)[C@@H](NC(=O)[C@H](CC(C)C)NC(=O)[C@H](Cc1ccccc1)NC(=O)[C@H](CCC(=O)O)NC(=O)[C@H](C)NC(=O)[C@H](CC(C)C)NC(=O)[C@H](CCCNC(=N)N)NC(=O)[C@H](CCC(N)=O)NC(=O)[C@@H](NC(=O)[C@H](C)NC(=O)[C@@H]1CSSC[C@H](NC(=O)[C@H](CCCCN)NC(=O)COCCOCCNC(=O)COCCOCCNC(=O)CC[C@H](NC(=O)CCCCCCCCCCCCCCCCCCC(=O)O)C(=O)O)C(=O)N[C@@H](CC(N)=O)C(=O)N[C@@H]([C@@H](C)O)C(=O)N[C@@H](C)C(=O)N[C@@H]([C@@H](C)O)C(=O)N1)[C@@H](C)O)C(C)C)C(=O)N[C@@H](CC(C)C)C(=O)N1CCC[C@H]1C(=O)N1CCC[C@H]1C(=O)N[C@H](C(=O)N[C@@H](CC(N)=O)C(=O)N[C@H](C(=O)NCC(=O)N[C@@H](CO)C(=O)N[C@@H](Cc1c[nH]cn1)C(=O)N[C@H](C(=O)N1CCC[C@H]1C(N)=O)[C@@H](C)O)C(C)C)[C@@H](C)O [Example 178, N-alpha-[2-(2-{2-[2-(2-{2-[(S)-4-Carboxy-4-(19-carboxyheptadecanoylamino)butyrylamino]ethoxy}ethoxy)acetylamino]ethoxy}ethoxy)acetyl]-[Glu14,Ala21,His35,Pro37]-pramlintide] ({C20 diacid-γGlu-AEEA-AEEA}-KCNTATCATQRLAEFLVHSSANFGPILPPTNVGSHTP-NH2; disulfide 2-7)
> 200 µM: [1] | [2] | [3] | [4] | [5] | [6] | [7] | [8] | [9] | [10]
